# Reference: paper PMC7037732, “Synthesis of Combretastatin A-4 and 3′-Aminocombretastatin A-4 derivatives with Aminoacid Containing Pendants and Study of their Interaction with Tubulin and as Downregulators of the VEGF, hTERT and c-Myc Gene Expression” (Molecules, 2020)
# Several values for one entry are separate records, joined by “and”; a condition that tells them apart may be missing. Identical values can stand only once. Entries after “also recorded” stand apart in the source; their conditions may differ.
# Columns and labels:
# tubulin = assay: In vitro tubulin polymerization by turbidimetry (It50); format: biochemical; conditions: turbidimetry at 350 nm, 37 °C; for Effect on in vitro tubulin polymerization: result in words; for It50 (time required to reach 50% of the polymerization): control 16.6 ± 1.0
# Description: Figure 3 also includes polymerization curves in the presence of CA-4, AmCA-4 and paclitaxel. This test was also performed using paclitaxel, a microtubule stabilizing agent, as a control for the complete formation of microtubules (see Figure 3).
# A-549 cells = assay: Effect on the cellular microtubule network (immunofluorescence); format: cell-based, human
# Description: The effect on the cellular microtubule network of CA-4 derivatives was studied for compounds 1, 3.7 (L-Thr-OMe), 3.8 (L-Tyr-OMe), 4.2 (L-Val) and 4.3 (L-Leu), which were those accumulating more cells in the G2/M phase. Thus, A-549 cells were incubated for 24 h in the presence of the above compounds and CA-4 at the concentrations indicated in Figure 4.
# The effect of some derivatives on the cellular microtubule network were also studied on A-549 cells. The selected compounds were 7.1 (Fmoc-Gly) (0.5 μM), 8.1 (Gly) (2 μM), 8.2 (L-Ala) (3 μM) and 10.1 (D-Val) (40 μM), which were those exerting a higher effect on the cell cycle.
# For immunofluorescence microscopy of the microtubule network, 10^6 cells were plated on cover glass and incubated with the different drugs. Cells were then fixed in 3.7% formaldehyde (in PBS pH 7.4) for 20 min at room temperature and permeabilized with PBS-Triton X-100 0.5% for 10 min at room temperature. Direct immunostaining was carried out for 2 h at room temperature with a primary FITC-conjugated anti-α-tubulin antibody (dilution 1:400 in PBS-BSA 1% from a 1 mg/mL solution; monoclonal antibody, clone DM1A; Sigma-Aldrich, Darmstadt, Germany.). Next, cells were incubated for 45 min at room temperature in darkness with secondary Alexa Fluor 488-conjugated antibodies (dilution 1:200 each from 1.5 mg/mL; Molecular Probe, France). Then, cells were washed in PBS and cover glasses were mounted with a drop of ProLong® antifade solution (Invitrogen). The cytoskeleton was imaged by a confocal laser scanning microscope (CLSM) Leica SP5 with a Leica inverted microscope, equipped with a Plan-Apochromat 63× oil immersion objective (NA = 1.4). Each image was recorded with the CLSM’s spectral mode selecting specific domains of the emission spectrum. The FITC fluorophore was excited at 488 nm with an argon laser, and its fluorescence emission was collected between 496 nm and 535 nm.
Compound,Effect on in vitro tubulin polymerization (tubulin),It50 (time required to reach 50% of the polymerization) (tubulin),further results
"COc1ccc(/C=C\c2cc(OC)c(OC)c(OC)c2)cc1N [AmCA-4, 3′-aminocombretastatin A-4]",almost no absorbance is detected,,"Effect on the microtubule network (A-549 cells; A-549, 24 h, 50 nM): total depolymerization of microtubules"
"COc1ccc(/C=C\c2cc(OC)c(OC)c(OC)c2)cc1O [CA-4, combretastatin A-4]",almost no absorbance is detected,,"Effect on the microtubule network (A-549 cells; A-549, 24 h, 50 nM): greatly depolymerizes microtubules"
COc1ccc(/C=C\c2cc(OC)c(OC)c(OC)c2)cc1NC(=O)CNC(=O)OCC1c2ccccc2-c2ccccc21 [Compound 7.1],,16 ± 3 min,"Effect on the microtubule network (A-549 cells; A-549, 0.5 μM): almost total depolymerization of the microtubule network"
COc1ccc(/C=C\c2cc(OC)c(OC)c(OC)c2)cc1NC(=O)CN [Compound 8.1],,18.5 ± 2.1 min,"Effect on the microtubule network (A-549 cells; A-549, 2 μM): almost total depolymerization of the microtubule network"
COc1ccc(/C=C\c2cc(OC)c(OC)c(OC)c2)cc1NC(=O)[C@H](C)N [Compound 8.2],able to delay the polymerization process; also recorded: partial inhibitors of the polymerization process; also recorded: partial inhibitors of the in vitro polymerization of tubulin,48 ± 5 min,"Effect on the microtubule network (A-549 cells; A-549, 3 μM): almost total depolymerization of the microtubule network"
COc1ccc(/C=C\c2cc(OC)c(OC)c(OC)c2)cc1NC(=O)[C@@H](N)Cc1ccccc1 [Compound 8.5],,,"Effect on the microtubule network (A-549 cells; A-549, 0.5 μM): much less active"
COc1ccc(/C=C\c2cc(OC)c(OC)c(OC)c2)cc1NC(=O)[C@@H](N)C(C)O (some centres unmarked) [Compound 8.7],able to delay the polymerization process; also recorded: partial inhibitors of the polymerization process; also recorded: partial inhibitors of the in vitro polymerization of tubulin,65 min and 65 ± 7 min,
